Results as given in patent publication US20210207079A1, “PROCESS FOR PRODUCING CELL CULTURE MEDIA” (Merck Patent GmbH, priority 2015, published 2021).
Where two headings read alike, the source gives them in different places.

Tests used:
[1] = cited from earlier work
[2] = in water at 25° C.; cited from earlier work
[3] = Cellvento CHO 200, text

In the case of `[Ca+2].[Cl-].[Cl-]` [Calcium Chloride anhydrous], the “Solubility (water) PubChem Database” value ([1]; at 20° C.) is given as 745 g/l at.

In the case of `O=C[C@@H](O)[C@@H](O)[C@H](O)[C@H](O)CO` [D(+)-Mannose], the “Solubility (water) PubChem Database” value ([1]; at 17° C.) is listed as 713 g/L bei.

In the case of `O=C(CO)[C@@H](O)[C@H](O)[C@H](O)CO` [D(−)-FRUCTOSE], the “Solubility (water) PubChem Database” value ([1]; at 25° C.) is listed as 200 g/100 ml.

In the case of `C[C@H](N)C(=O)O` [L-ALANINE], the “Solubility (water) PubChem Database” value ([1]; at 25° C.) is listed as 164 g/l water.

For `N[C@@H](CSSC[C@H](N)C(=O)O)C(=O)O` [L-Cystine, L-cystine], the Solubility [2] is listed as “nearly insoluble” and the “Maximal concentration in Cellvento CHO 200 at which the medium can still be completely dissolved in water” value [3] is listed as “below 0.1 g/L”.

For `Cl.NCCCC[C@H](N)C(=O)O` [L-LYSINE MONOHYDROCHLORIDE], the “Solubility (water) PubChem Database” value ([1]; at 25° C.) is listed as >100 g/100 g/100 ml.

In the case of `CSCC[C@H](N)C(=O)O` [L-Methionine], the “Solubility (water) PubChem Database” value ([1]; at 25° C.) is listed as 56.6 g/L water g/l.

For `[Cl-].[K+]` [Potassium chloride], the “Solubility (water) PubChem Database” value ([1]; at 25° C.) is given as 35.5/100 g /100 g water.
